Measured values reported in paper PMC8451604, “Rational formulation engineering of fraxinellone utilizing 6-O-α-D-maltosyl-β-cyclodextrin for enhanced oral bioavailability and hepatic fibrosis therapy” (Drug Delivery, 2021).
In brackets after ≈: the same amount, converted by molar mass.

What was measured:
[1] = Phase solubility study of Frax with CDs; format: physicochemical; conditions: 37 °C; for solubility at 72 h: aqueous with cosolvent or surfactant or cyclodextrin, thermodynamic from solid; for Frax solubility increase: vs water
Procedure: Frax was excessively mixed with increasing molar concentrations (0–350.00 mM) of each CD aqueous solution. […] The samples were subjected to HPLC analysis after centrifugation (4024.8 g, 10 min). Phase solubility profiles were plotted by monitoring Frax concentration as a function of the molar concentration of each CD. Based on the phase solubility curves, we calculated the apparent stability constants (Kc, L/mol) according to Equation (1): (1) Kc=Slope/S0(1−Slope) where S0 is the water solubility of Frax at equilibrium.

[2] = Blood biochemical assay (hematological parameters); format: in vivo, Kunming male mice; conditions: mice, 7 weeks; for PLT (platelet) / WBC (white blood cell): in 10^9/L (unit assumed); for RBC (red blood cell): in 10^12/L (unit assumed); for HCT (haematocrit) / RDW-CV (red cell volume distribution width): in % (unit assumed); for MCV (mean cell volume) / MPV (meanplateletvolume) / RDW-SD: in fL (unit assumed); for HGB (hemoglobin): in g/L (unit assumed); for MCH (mean corpuscular hemoglobin): in pg (unit assumed)
Procedure: The Kunming male mice (weight of 28–30 g) were divided into 10 groups (n = 10): normal group, Frax or G2-β-CD-Frax treatment groups with a Frax dose of 5, 10, and 20 mg/kg, respectively, G2-β-CD solution treatment (equivalent to 20 mg/kg of G2-β-CD-Frax) group. Drug treatment continued every day for 7 weeks. One day after the last administration, blood and major tissues (heart, liver, spleen, lung, and kidney) were obtained from the blank group and drug-treated groups (20 mg/kg) for histological examination. The whole blood was directly analyzed using an automatic blood cell analyzer to obtain hematological parameters. The collected tissues were subjected to histological examination.

[3] = set-up: method as in Ruan et al., 2006; conditions: ref Ruan et al., 2006; cited from earlier work
[4] = test system: CCl4-induced liver fibrosis mice; assay: CCl4-induced liver fibrosis, therapeutic efficacy; format: in vivo, Kunming male mice
Procedure: The Kunming male mice (weight of 28–30 g) were divided into 10 groups (n = 10): normal group, CCl4-induced liver fibrosis group, CCl4 induction treated with Frax or G2-β-CD-Frax treatment groups (5, 10, and 20 mg/kg, respectively), CCl4 induction with colchicine (0.2 mg/kg) treatment group, CCl4 induction with G2-β-CD solution treatment (equivalent to 20 mg/kg of G2-β-CD-Frax) group. The mice in the normal group were treated with olive oil only, while the other groups were intraperitoneally injected with 10% CCl4-olive oil every other week for 10 weeks (5 mL/kg for the first dose and 3 mL/kg for the second starting dose). Drug treatment began on the fourth week of modeling and continued every day for 7 weeks. One day after the last administration, blood in all the groups was immediately harvested for assays of AST and ALT. […] were then sacrificed and livers were collected and divided into two parts for histological examination and Hydroxyproline (HYP) assay, respectively.

Caco-2 cells = assay: Cytotoxicity in Caco-2 cells (MTT assay); format: cell-based; conditions: Caco-2, concentration increased to 200 μg/mL
Procedure: Cytotoxicity effects and cellular uptake ability of Frax, CDs, and CDs-Frax complexes were examined using Caco-2 cells. […] Each CD solution was also used to determine whether the cell toxicity was caused by Frax or CDs. For cellular uptake studies, Caco-2 cells were treated with Frax and CDs-Frax (100 μg/mL) for 0.5, 1, and 2 h, respectively. For P-gp inhibition evaluation, the cells were pretreated with verapamil at a concentration of 100 μg/mL and further treated with each drug or formulation. Thereafter, the cells were washed and replenished with fresh PBS (300 μL). The cell lysate was prepared by three cycles of freeze-thaw. Protein concentration in the samples was quantified by the BCA kit while the Frax concentration was determined by HPLC.

[5] = oral 5 mg/kg daily for 7 weeks, vs CCl4 group

With `CC1=C2C(=O)O[C@@H](c3ccoc3)[C@]2(C)CCC1` [Frax, Fraxinellone] the solubility at 72 h ([1]; 8.82 mM G2-β-CD aqueous solution, with 8.82 mM G2-β-CD) was 430 µg/mL (≈ 1850 µM), the solubility at 72 h ([1]; 8.82 mM HP-β-CD aqueous solution, with 8.82 mM HP-β-CD) was 330 µg/mL (≈ 1420 µM) and the solubility at 72 h ([1]; 8.82 mM SBE-β-CD aqueous solution, with 8.82 mM SBE-β-CD) was 600 µg/mL (≈ 2580 µM). The solubility at 72 h ([1]; 8.82 mM β-CD aqueous solution, with 8.82 mM β-CD) was 310 µg/mL (≈ 1330 µM), the solubility at 72 h ([1]; 350 mM G2-β-CD aqueous solution, with 350 mM G2-β-CD) was 12300 µg/mL (≈ 53000 µM) and the solubility at 72 h ([1]; 350 mM HP-β-CD aqueous solution, with 350 mM HP-β-CD) was 6550 µg/mL (≈ 28200 µM). It also gave a solubility at 72 h ([1]; 350 mM SBE-β-CD aqueous solution, with 350 mM SBE-β-CD) of 13600 µg/mL (≈ 58400 µM), a Frax solubility increase ([1]; with 8.82 mM G2-β-CD) of 5.45 fold and a Frax solubility increase ([1]; with 8.82 mM HP-β-CD) of 4.18 fold. For the same compound, the Frax solubility increase ([1]; with 8.82 mM SBE-β-CD) was 7.61 fold, the Frax solubility increase ([1]; with 8.82 mM β-CD) was 3.93 fold and the Frax solubility increase ([1]; with 350 mM G2-β-CD) was 156.19 fold. The Frax solubility increase ([1]; with 350 mM HP-β-CD) was 83.04 fold, the Frax solubility increase ([1]; with 350 mM SBE-β-CD) was 171.91 fold and the “MCHC (mean corpuscular hemoglobin concentration)” value (“MCHC” below) ([2]; 5 mg/kg) was 342.63 ± 10.38. For the same compound, the “PDW (platelet distribution width)” value ([2]; 5 mg/kg) was 14.84 ± 0.12, the “PLT (platelet)” value ([2]; 5 mg/kg) was 1188.13 ± 317.24 and the “WBC (white blood cell)” value ([2]; 5 mg/kg) was 7.78 ± 3.91. For the same compound, the “RBC (red blood cell)” value ([2]; 5 mg/kg) was 9.21 ± 0.75, the “HCT (haematocrit)” value ([2]; 5 mg/kg) was 39.54 ± 2.28 and the “RDW-CV (red cell volume distribution width)” value (“RDW-CV” below) ([2]; 5 mg/kg) was 16.24 ± 1.32. For the same compound, the “MCV (mean cell volume)” value ([2]; 5 mg/kg) was 43.01 ± 2.17, the “MPV (meanplateletvolume)” value ([2]; 5 mg/kg) was 6.51 ± 0.32 and the RDW-SD ([2]; 5 mg/kg) was 29.88 ± 3.52. For the same compound, the “HGB (hemoglobin)” value ([2]; 5 mg/kg) was 135.50 ± 10.76, the “MCH (mean corpuscular hemoglobin)” value ([2]; 5 mg/kg) was 14.73 ± 0.49 and the “MCHC” value ([2]; 10 mg/kg) was 344.43 ± 9.64. For the same compound, the “PDW (platelet distribution width)” value ([2]; 10 mg/kg) was 14.91 ± 0.12, the “PLT (platelet)” value ([2]; 10 mg/kg) was 1012.71 ± 281.88 and the “WBC (white blood cell)” value ([2]; 10 mg/kg) was 6.46 ± 2.46. The “RBC (red blood cell)” value ([2]; 10 mg/kg) was 8.42 ± 0.32, the “HCT (haematocrit)” value ([2]; 10 mg/kg) was 37.15 ± 1.70 and the “RDW-CV” value ([2]; 10 mg/kg) was 16.22 ± 0.59. For the same compound, the “MCV (mean cell volume)” value ([2]; 10 mg/kg) was 43.80 ± 1.44, the “MPV (meanplateletvolume)” value ([2]; 10 mg/kg) was 6.63 ± 0.44 and the RDW-SD ([2]; 10 mg/kg) was 30.71 ± 1.70. For the same compound, the “HGB (hemoglobin)” value ([2]; 10 mg/kg) was 127.00 ± 5.10, the “MCH (mean corpuscular hemoglobin)” value ([2]; 10 mg/kg) was 15.09 ± 0.46 and the “MCHC” value ([2]; 20 mg/kg) was 338.75 ± 3.58. For the same compound, the “PDW (platelet distribution width)” value ([2]; 20 mg/kg) was 14.86 ± 0.17, the “PLT (platelet)” value ([2]; 20 mg/kg) was 1190.00 ± 157.80 and the “WBC (white blood cell)” value ([2]; 20 mg/kg) was 8.32 ± 3.90. For the same compound, the “RBC (red blood cell)” value ([2]; 20 mg/kg) was 9.07 ± 0.33, the “HCT (haematocrit)” value ([2]; 20 mg/kg) was 38.83 ± 1.69 and the “RDW-CV” value ([2]; 20 mg/kg) was 16.54 ± 0.79. The “MCV (mean cell volume)” value ([2]; 20 mg/kg) was 42.83 ± 1.54, the “MPV (meanplateletvolume)” value ([2]; 20 mg/kg) was 6.38 ± 0.23 and the RDW-SD ([2]; 20 mg/kg) was 30.13 ± 2.23. For the same compound, the “HGB (hemoglobin)” value ([2]; 20 mg/kg) was 131.50 ± 5.66, the “MCH (mean corpuscular hemoglobin)” value ([2]; 20 mg/kg) was 14.51 ± 0.46 and the intestinal permeability [3] was “good intestinal permeability”. For the same compound, the “collagen in liver tissue (Masson, Sirius Red staining)” value [4, 5] was “no obvious inhibition”, the “levels of liver fibrosis markers AST, ALT and HYP” value [4, 5] was “no significant decrease” and the “effect on liver fibrosis” value ([4]; oral 20 mg/kg daily for 7 weeks) was “rather modest effect”. For the same compound, the “cytotoxicity (in words)” value (Caco-2 cells) was “marked cell death”.
